Assay results from ChEMBL document CHEMBL4627393, “Discovery of Potent, Selective, and State-Dependent NaV1.7 Inhibitors with Robust Oral Efficacy in Pain Models: Structure-Activity Relationship and Optimization of Chroman and Indane Aryl Sulfonamides” (J Med Chem, 2020).

Assay: Lipophilicity, log D of the compound
Assay type: physicochemical
Conditions: octanol/water

## O=S(=O)(Nc1ccncn1)c1ccc2c(c1)OCC[C@@H]2c1ccc(C(F)(F)F)cc1-c1ccc(F)nc1
  logD: 2.3

## Cc1ccc(-c2cc(C(F)(F)F)ccc2[C@H]2CCOc3cc(S(=O)(=O)Nc4ncc(F)cn4)ccc32)cn1
  logD: 2.5

## Cn1nccc1-c1cc(C(F)(F)F)ccc1[C@H]1CCOc2cc(S(=O)(=O)Nc3ccncn3)ccc21
  logD: 1.8

## Cc1nc(-c2cc(C(F)(F)F)ccc2[C@H]2CCOc3cc(S(=O)(=O)Nc4nccs4)ccc32)co1
  logD: 2.9

## O=S(=O)(Nc1nccs1)c1ccc2c(c1)OCC[C@@H]2c1ccc(C(F)(F)F)cc1-c1nccs1
  logD: 3.3

## Cn1nccc1-c1cc(C(F)(F)F)ccc1[C@H]1CCOc2cc(S(=O)(=O)Nc3ccc(F)cn3)ccc21
  logD: 3.8

## O=S(=O)(Nc1ncc(F)cn1)c1ccc2c(c1)OCC[C@@H]2c1ccc(C(F)(F)F)cc1N1CCOCC1
  logD: 2.8

## O=S(=O)(Nc1ncccn1)c1ccc2c(c1)OCC[C@@H]2c1ccc(C(F)(F)F)cc1-c1ccc(F)cn1
  logD: 2.9

## O=S1(=O)CCN(c2cc(C(F)(F)F)ccc2[C@H]2CCOc3cc(S(=O)(=O)Nc4nccs4)ccc32)CC1
  logD: 2.5

## Cn1nccc1-c1cc(C(F)(F)F)ccc1[C@H]1CCOc2cc(S(=O)(=O)Nc3cccc(F)n3)ccc21
  logD: 3.6

## Cn1nccc1-c1cc(C(F)(F)F)ccc1[C@H]1CCOc2cc(S(=O)(=O)Nc3ncc(F)cn3)ccc21
  logD: 2.5

## O=S(=O)(Nc1ncccn1)c1ccc2c(c1)CC[C@@H]2c1ccc(C(F)(F)F)cc1-c1ccc(F)nc1
  logD: 3.2

## O=S(=O)(Nc1ncc(F)cn1)c1ccc2c(c1)OCC[C@@H]2c1ccc(C(F)(F)F)cc1-c1ccc(F)cn1
  logD: 3

## Cc1ccc(-c2cc(C(F)(F)F)ccc2[C@H]2CCOc3cc(S(=O)(=O)Nc4ccncn4)ccc32)cn1
  logD: 3

## O=S(=O)(Nc1nccs1)c1ccc2c(c1)OCC[C@@H]2c1ccc(C(F)(F)F)cc1-c1ccc(F)cc1
  logD: 4.5

## O=S(=O)(Nc1nccs1)c1ccc2c(c1)OCC[C@H]2c1ccc(C(F)(F)F)cc1-c1nccs1
  logD: 3.3

## O=S(=O)(Nc1nccs1)c1ccc2c(c1)OCC[C@@H]2c1ccc(C(F)(F)F)cc1-c1ccc(F)cn1
  logD: 3.5

## O=S(=O)(Nc1nccs1)c1ccc2c(c1)OCC[C@H]2c1ccc(C(F)(F)F)cc1-n1ccnn1
  logD: 2.3

## Cc1ccc(-c2cc(C(F)(F)F)ccc2[C@H]2CCc3cc(S(=O)(=O)Nc4ncccn4)ccc32)cn1
  logD: 2.8

## O=S(=O)(Nc1ccncn1)c1ccc2c(c1)OCC[C@@H]2c1ccc(C(F)(F)F)cc1-c1ccc(F)cn1
  logD: 3

## Cn1nccc1-c1cc(C(F)(F)F)ccc1[C@@H]1CCOc2cc(S(=O)(=O)Nc3nccs3)ccc21
  logD: 2.2

## Cn1nccc1-c1cc(C(F)(F)F)ccc1[C@H]1CCOc2cc(S(=O)(=O)Nc3cnccn3)ccc21
  logD: 1.8

## Cn1nccc1-c1cc(C(F)(F)F)ccc1[C@H]1CCOc2cc(S(=O)(=O)Nc3cc(F)ccn3)ccc21
  logD: 3.2

## Cc1nc(-c2cc(C(F)(F)F)ccc2[C@@H]2CCOc3cc(S(=O)(=O)Nc4nccs4)ccc32)co1
  logD: 2.9

## Cc1nc(-c2cc(C(F)(F)F)ccc2[C@H]2CCOc3cc(S(=O)(=O)Nc4ncc(F)cn4)ccc32)co1
  logD: 2.8

## O=S(=O)(Nc1ncccn1)c1ccc2c(c1)CC[C@@H]2c1ccc(C(F)(F)F)cc1N1CCOCC1
  logD: 2.9

## Cc1ccc(-c2cc(C(F)(F)F)ccc2[C@H]2CCOc3cc(S(=O)(=O)Nc4cccc(F)n4)ccc32)cn1
  logD: 3.7

## O=C1OCCN1c1cc(C(F)(F)F)ccc1[C@H]1CCOc2cc(S(=O)(=O)Nc3nccs3)ccc21
  logD: 2.1

## O=S(=O)(Nc1nccs1)c1ccc2c(c1)OCC[C@H]2c1ccc(C(F)(F)F)cc1-c1ccc(F)cc1
  logD: 4.5

## Cc1nc(-c2cc(C(F)(F)F)ccc2[C@H]2CCOc3cc(S(=O)(=O)Nc4ncccn4)ccc32)co1
  logD: 2.8

## O=S(=O)(Nc1ncc(F)cn1)c1ccc2c(c1)OCC[C@@H]2c1ccc(C(F)(F)F)cc1-c1ccc(F)nc1
  logD: 2.9

## Cc1nc(-c2cc(C(F)(F)F)ccc2[C@H]2CCOc3cc(S(=O)(=O)Nc4cccc(F)n4)ccc32)co1
  logD: 4
